From patent publication US20230416256A1, “SMALL MOLECULE INHIBITORS OF NF-kB INDUCING KINASE” (Janssen Pharmaceutica NV, priority 2020, published 2023)
Where two headings read alike, the source gives them in different places.

What was measured:
[1] = molecular target: recombinant human NF-kappaB-inducing kinase (NIK/MAP3K14) (Homo sapiens, UniProt Q99558); test: Inhibition of auto-phosphorylation of recombinant human NIK/MAP3K14 activity (AlphaScreen); assay type: biochemical; settings: GST-tagged NIK/MAP3K14 1 nM, 5 μM ATP, 2 h at 25° C.; average of values obtained
Chain of recombinant human NF-kappaB-inducing kinase (NIK/MAP3K14) (Q99558 whole entry): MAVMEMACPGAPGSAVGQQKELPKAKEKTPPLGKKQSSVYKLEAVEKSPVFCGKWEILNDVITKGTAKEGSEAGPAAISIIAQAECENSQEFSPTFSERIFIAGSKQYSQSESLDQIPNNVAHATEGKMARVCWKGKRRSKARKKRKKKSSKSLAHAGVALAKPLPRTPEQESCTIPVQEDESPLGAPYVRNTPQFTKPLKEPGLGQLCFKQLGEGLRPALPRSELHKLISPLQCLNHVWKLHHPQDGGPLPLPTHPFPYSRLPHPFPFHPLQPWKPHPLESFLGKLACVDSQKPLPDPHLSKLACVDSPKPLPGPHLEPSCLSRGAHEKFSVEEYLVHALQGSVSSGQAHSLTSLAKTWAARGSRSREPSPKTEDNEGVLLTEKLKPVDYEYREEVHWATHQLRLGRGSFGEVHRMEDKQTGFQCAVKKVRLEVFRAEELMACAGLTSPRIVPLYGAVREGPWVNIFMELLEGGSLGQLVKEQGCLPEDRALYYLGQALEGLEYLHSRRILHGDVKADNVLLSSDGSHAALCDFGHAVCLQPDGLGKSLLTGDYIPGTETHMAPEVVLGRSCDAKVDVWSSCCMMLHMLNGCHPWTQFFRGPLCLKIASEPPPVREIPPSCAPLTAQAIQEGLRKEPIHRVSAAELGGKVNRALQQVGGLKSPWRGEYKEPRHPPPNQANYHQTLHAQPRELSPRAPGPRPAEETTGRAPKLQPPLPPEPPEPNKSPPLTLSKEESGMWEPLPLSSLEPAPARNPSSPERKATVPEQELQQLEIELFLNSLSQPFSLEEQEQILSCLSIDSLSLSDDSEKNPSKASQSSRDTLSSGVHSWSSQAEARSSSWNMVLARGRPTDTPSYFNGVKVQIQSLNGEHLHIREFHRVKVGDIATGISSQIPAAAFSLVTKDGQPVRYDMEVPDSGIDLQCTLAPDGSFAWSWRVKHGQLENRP
Procedure, shortened: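 GST-tagged NIK (1 nM) auto-phosphorylated for 2 h at 25 °C with 5 μM ATP in 50 mM Tris pH 7.5, 5 mM MgCl2, 0.7% DMSO. Phospho-Ser176/180 was detected by AlphaScreen using an anti-phospho-IKK antibody. IC50 came from sigmoidal fits of % inhibition versus high (full activity) and low (no ATP) controls.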

[2] = system: p-IKKα levels in L363 (NIK translocated multiple myeloma) cells; test: Effect of compounds on p-IKKα levels in L363 cells (AlphaLISA SureFire Ultra); assay type: cell-based, human; settings: Homo sapiens, 10 μM MG132, 6 h, average of values obtained, read-out: Assay 2 IC50
Procedure, shortened: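 L363 cells were BAFF-stimulated overnight (250 ng/ml) in DMEM/0.5% BSA, then exposed to an 11-point 1:3 compound series (0.3% DMSO) with BAFF and 10 μM MG132 for 6 h at 37 °C. p-IKKα (Ser176/180) was measured by AlphaLISA SureFire Ultra. IC50 was fitted from % inhibition normalized to stimulated and unstimulated controls.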

[3] = L-363, 250 ng/ml BAFF stimulated

IC50 ([2]; L-363, 6 h, 250 ng/ml BAFF stimulated) [µM]	SMILES	IC50 [1] [µM]	IC50 [2, 3] [µM]
	CN1CC[C@@](O)(c2cccc(-c3nc(-c4c[nH]c5ncccc45)sc3C#N)c2)C1=O [Example 98, (R)-4-(3-(3-Hydroxy-1-methyl-2-oxopyrrolidin-3-yl)phenyl)-2-(1H-pyrrolo[2,3-b]pyridin-3-yl)thiazole-5-carbonitrile]	> 0.5	> 0.5
	CN1CC[C@@](O)(c2cccc(-c3csc(-c4n[nH]c5ncccc45)n3)c2)C1=O [Example 100, (R)-3-(3-(2-(1H-Pyrazolo[3,4-b]pyridin-3-yl)thiazol-4-yl)phenyl)-3-hydroxy-1-methylpyrrolidin-2-one]	> 0.5	> 0.5
> 0.5	C[C@@]1(O)C[C@@](O)(c2cccc(-c3csc(-c4c[nH]c5ncccc45)n3)c2)c2ncccc21 [Example 106, (5R,7R)-7-(3-(2-(1H-Pyrrolo[2,3-b]pyridin-3-yl)thiazol-4-yl)phenyl)-5-methyl-6,7-dihydro-5H-cyclopenta[b]pyridine-5,7-diol]	> 0.5	
	CN1CC[C@@](O)(c2cccc(-c3csc(-c4c(F)[nH]c5ncc(F)cc45)n3)c2)C1=O [Example 110, (R)-3-(3-(2-(2,5-Difluoro-1H-pyrrolo[2,3-b]pyridin-3-yl)thiazol-4-yl)phenyl)-3-hydroxy-1-methylpyrrolidin-2-one]	0.1 to 0.5	> 0.5
	CN1CC[C@@](O)(c2cccc(-c3csc(-n4ccc5nc(N)ccc54)n3)c2)C1=O [Example 112, (R)-3-(3-(2-(5-Amino-1H-pyrrolo[3,2-b]pyridin-1-yl)thiazol-4-yl)phenyl)-3-hydroxy-1-methylpyrrolidin-2-one]	> 0.5	> 0.5
	Cc1ccc2[nH]cc(-c3nc(-c4cccc([C@]5(O)CCN(C)C5=O)c4)cs3)c2n1 [Example 113, (R)-3-Hydroxy-1-methyl-3-(3-(2-(5-methyl-1H-pyrrolo[3,2-b]pyridin-3-yl)thiazol-4-yl)phenyl)pyrrolidin-2-one]	0.1 to 0.5	> 0.5
	CN1CC[C@@](O)(c2cccc(-c3ccc(-c4c[nH]c5ncccc45)o3)c2)C1=O [Example 114, (R)-3-(3-(5-(1H-Pyrrolo[2,3-b]pyridin-3-yl)furan-2-yl)phenyl)-3-hydroxy-1-methylpyrrolidin-2-one]	≤ 0.1	0.1 to 0.5
	CN1CC[C@@](O)(c2cccc(-c3cc(-c4c[nH]c5ncccc45)co3)c2)C1=O [Example 115, (R)-3-(3-(4-(1H-Pyrrolo[2,3-b]pyridin-3-yl)furan-2-yl)phenyl)-3-hydroxy-1-methylpyrrolidin-2-one]	> 0.5	> 0.5
	CN1CC[C@@](O)(c2cccc(-c3coc(-c4c[nH]c5ncccc45)n3)c2)C1=O [Example 116, (R)-3-(3-(2-(1H-Pyrrolo[2,3-b]pyridin-3-yl)oxazol-4-yl)phenyl)-3-hydroxy-1-methylpyrrolidin-2-one]	≤ 0.1	> 0.5
	CN1CC[C@@](O)(c2cccc(-c3cc(-c4c[nH]c5ncccc45)[nH]n3)c2)C1=O [Example 117, (R)-3-(3-(5-(1H-Pyrrolo[2,3-b]pyridin-3-yl)-1H-pyrazol-3-yl)phenyl)-3-hydroxy-1-methylpyrrolidin-2-one]	0.1 to 0.5	> 0.5
	CN1CC[C@@](O)(c2cccc(-c3cc(-c4c[nH]c5ncccc45)nn3C)c2)C1=O [Example 118, (R)-3-Hydroxy-1-methyl-3-(3-(1-methyl-3-(1H-pyrrolo[2,3-b]pyridin-3-yl)-1H-pyrazol-5-yl)phenyl)pyrrolidin-2-one]	0.1 to 0.5	> 0.5
	Cc1c(-c2c[nH]c3ncccc23)n[nH]c1-c1cccc([C@]2(O)CCN(C)C2=O)c1 [Example 119, (R)-3-Hydroxy-1-methyl-3-(3-(4-methyl-3-(1H-pyrrolo[2,3-b]pyridin-3-yl)-1H-pyrazol-5-yl)phenyl)pyrrolidin-2-one]	> 0.5	> 0.5
	CN1CC[C@@](O)(c2cccc(-c3cnc(-c4c[nH]c5ncccc45)n3C)c2)C1=O [Example 120, (R)-3-hydroxy-1-methyl-3-(3-(1-methyl-2-(1H-pyrrolo[2,3-b]pyridin-3-yl)-1H-imidazol-5-yl)phenyl)pyrrolidin-2-one]	> 0.5	> 0.5
	CN1CC[C@@](O)(c2cccc(-c3ncc(-c4c[nH]c5ncccc45)n3C)c2)C1=O [Example 125, (R)-3-Hydroxy-1-methyl-3-(3-(1-methyl-5-(1H-pyrrolo[2,3-b]pyridin-3-yl)-1H-imidazol-2-yl)phenyl)pyrrolidin-2-one]	0.1 to 0.5	> 0.5
	CN1CC[C@@](O)(c2cccc(-c3nc(-c4ccnc5[nH]ccc45)cs3)c2)C1=O [Example 127, (R)-3-(3-(4-(1H-Pyrrolo[2,3-b]pyridin-4-yl)thiazol-2-yl)phenyl)-3-hydroxy-1-methylpyrrolidin-2-one]	≤ 0.1	> 0.5
	CN1CC[C@@](O)(c2cccc(-c3nc(-c4ccc5cnn(C)c5c4)cs3)c2)C1=O [Example 128, (R)-3-Hydroxy-1-methyl-3-(3-(4-(1-methyl-1H-indazol-6-yl)thiazol-2-yl)phenyl)pyrrolidin-2-one]	> 0.5	> 0.5
	CN1CC[C@@](O)(c2cccc(-c3nc(-c4cc(N)nc5[nH]ccc45)cs3)c2)C1=O [Example 129, (R)-3-(3-(4-(6-Amino-1H-pyrrolo[2,3-b]pyridin-4-yl)thiazol-2-yl)phenyl)-3-hydroxy-1-methylpyrrolidin-2-one]	> 0.5	> 0.5
	CN1CC[C@@](O)(c2cccc(-c3nc(-c4c(Cl)cnc5[nH]ccc45)cs3)c2)C1=O [Example 130, (R)-3-(3-(4-(5-Chloro-1H-pyrrolo[2,3-b]pyridin-4-yl)thiazol-2-yl)phenyl)-3-hydroxy-1-methylpyrrolidin-2-one]	> 0.5	> 0.5
	CN1CC[C@@](O)(c2cccc(-c3nc(-c4cccc5[nH]ncc45)cs3)c2)C1=O [Example 131, (R)-3-(3-(4-(1H-Indazol-4-yl)thiazol-2-yl)phenyl)-3-hydroxy-1-methylpyrrolidin-2-one]	> 0.5	> 0.5
	CN1CC[C@@](O)(c2cccc(-c3nc(-c4c(F)cnc5[nH]ccc45)cs3)c2)C1=O [Example 132, (R)-3-(3-(4-(5-Fluoro-1H-pyrrolo[2,3-b]pyridin-4-yl)thiazol-2-yl)phenyl)-3-hydroxy-1-methylpyrrolidin-2-one]	> 0.5	> 0.5
